In patent US20240261218A1, “BIODEGRADABLE MUCOADHESIVE PHARMACEUTICAL FORMULATIONS AND METHODS THEREOF” (THE TEXAS A&M UNIVERSITY SYSTEM, priority 2021, published 2024):
“And” between values parts separate entries of the source, which are not always exact repeats. Equal values may be shown once. “Also recorded” adds a separate entry of the source. Read-outs that look alike come from different tables or passages of the source. Each block holds one molecule with its values, some of them ahead of it.

Assays:
[1] = test system: Dysplastic oral keratinocyte (DOK) cells; test: MTT growth inhibition (IC50) in DOK cells; assay type: cell-based; details: MTT assay; for IC50: read-out: IC50 concentration
From the text: • 1. Animal care and treatment. […] Combination index (CI) and isoborogram. […] Pharmaceutical formulation. […] LC-MS/MS.

[2] = Plasma concentrations before the fifth dose in 4NQO-treated rats; assay type: in vivo, rat
[3] = In vivo active ingredient release: tongue tissue and plasma amounts in healthy rats; set-up: species or system rat
Procedure: The instant example analyzes exemplary pharmaceutical formulations applied to the tongue of healthy rats for different time periods up to 4 hours. Concentrations of mycophenolic acid and oxaliplatin in tongue tissues were measured at the corresponding times and up to 12 hours from the beginning of the formulation application in rats. The following are groups of rats that were studied: • Group #1: Formulation applied for 0.5 hour and rat tongues were harvested for drug analysis. N=8 rats. • Group #2: Formulation applied for 1 hour and rat tongues were harvested for drug analysis. N=13 rats. • Group #3: Formulation applied for 2 hours and rat tongues were harvested for drug analysis. N=13 rats. • Group #4: Formulation applied for 3 hours and rat tongues were harvested for drug analysis. N=12 rats. • Group #5: Formulation applied for 4 hours and rat tongues were harvested for drug analysis. N=6 rats. • Group #6: Formulation applied for 4 hours and removed from the rat. At 8 hours after the start of the Formulation application, rat tongues were harvested for drug analysis. N=7 rats. • Group #7: Formulation applied for 4 hours and removed from the rat. At 12 hours after the start of the Formulation application, rat tongues were harvested for drug analysis. N=9 rats.
• 1. Animal care and treatment. […] Combination index (CI) and isoborogram. […] Pharmaceutical formulation.

[4] = Stability of OXP in solutions; assay type: physicochemical
From the text: These chloride derivatives of OXP are not detectable by current available assays.

Structure (SMILES): O=c1[nH]cc(F)c(=O)[nH]1 [5-FU]
IC50 concentration [1]: 3.33 µg/mL

plasma concentration of MPS right before the placement of the last (fifth) formulation, group value ([2]; group treated with OXP-MPS formulations, 2 hours × 5 days): 4.52 (+2.23) ng/ml | MPS detected in rat tongue as % of the formulation drug load ([3]; 0.5 hour supra-lingual application): about 55% | plasma MPS concentrations ([3]; all groups): less than 10 ng/mL | concentration at 8 h ([3]; male, Sprague-Dawley, rat, plasma, healthy rats, applied 4 hours, sampled 4 hours after removal (8 hours from beginning), mean ± SD): 6.5 ± 1.3 ng/mL | concentration at 12 h ([3]; male, Sprague-Dawley, rat, plasma, healthy rats, applied 4 hours, sampled 8 hours after removal (12 hours from beginning), mean ± SD): 4.26 ± 0.71 ng/mL | concentration at 1 h ([3]; male, Sprague-Dawley, rat, plasma, healthy rats, supra-lingual formulation, 1 hour of application, mean ± SD): 0.96 ± 0.26 ng/mL | concentration at 2 h ([3]; male, Sprague-Dawley, rat, plasma, healthy rats, supra-lingual formulation, 2 hours of application, mean ± SD): 2.09 ± 0.76 ng/mL | concentration at 3 h ([3]; male, Sprague-Dawley, rat, plasma, healthy rats, supra-lingual formulation, 3 hours of application, mean ± SD): 2.76 ± 0.68 ng/mL | concentration at 4 h ([3]; male, Sprague-Dawley, rat, plasma, healthy rats, supra-lingual formulation, 4 hours of application, mean ± SD): 1.76 ± 0.53 ng/mL
Structure (SMILES): COc1c(C)c2c(c(O)c1C/C=C(\C)CCC(=O)O)C(=O)OC2 [MPS, mycophenolate]
Plasma concentration of mycophenolate immediately before the fifth dose application ([2]; 4NQO induced rats, daily 2-hours supra-lingual formulation (9,040 ng MPS, 680 ng OXP), individual rats, steady-state trough): 8.24 ng/mL and 6.84 ng/mL and 3.83 ng/mL and 2.54 ng/mL and 4.82 ng/mL and 2.37 ng/mL and 5.18 ng/mL

Structure (SMILES): O=C1[O][Pt]2([NH][C@@H]3CCCC[C@H]3[NH]2)[O]C1=O (relative stereo) [OXP, [SP-4-2-(1R-trans)]-(1,2-cyclohexanediamine-N,N′)[ethanedioato(2-)-O,O′]platinum]
Plasma concentration of oxaliplatin immediately before the fifth dose application ([2]; 4NQO induced rats, daily 2-hours supra-lingual formulation (9,040 ng MPS, 680 ng OXP)): not detectible | Plasma concentration of oxaliplatin immediately before the fifth dose application ([2]; 4NQO induced rats, daily 2-hours supra-lingual formulation (9,040 ng MPS, 680 ng OXP), listed as oxaliplatin): No detectable levels; also recorded: Not detectible (ND) | IC50 [1]: 1670 nM | oxaliplatin in rat tongue as % of the formulation active ingredient load ([3]; 0.5-hour formulation application group): about 21% | oxaliplatin in plasma ([3]; any groups): no detectable oxaliplatin in plasma | stability of OXP in chloride-containing solutions ([4]; NaCl (0.9%, 3%), KCl (3%)): converted by chloride in a time and concentration-dependent manner | stability of OXP in NaPi, glucose, or H2O solutions and solutions containing the bioadhesive material components ([4]; NaPi 0.2M, glucose 5%, H2O, PAA, DOPA, CMC): remains stable

Structure (SMILES): COc1c(C)c2c(c(O)c1C/C=C(\C)CCC(=O)O)C(=O)OC2 [MPA]
IC50 ([1]; Keratinocyte): 13300 nM

Structure (SMILES): CC(=O)O[C@H]1C(=O)[C@@]2(C)[C@H]([C@H](OC(=O)c3ccccc3)[C@]3(O)C[C@H](OC(=O)[C@H](O)[C@@H](NC(=O)c4ccccc4)c4ccccc4)C(C)=C1C3(C)C)[C@]1(OC(C)=O)CO[C@@H]1C[C@@H]2O [paclitaxel]
IC50 ([1]; Keratinocyte): 0.41 nM
